# Reference: patent publication US11591596B2, “Compounds and compositions including phosphorothioated oligodeoxynucleotide, and methods of use thereof” (City of Hope, priority 2015, dated 2023)
# Tests used:
# [1] = tested on: miR-126; test: miR-126 expression in K562 and MV4-11 cells with miR-126 inhibitors or mimics; assay type: cell-based; settings: 500 nM, 24 hours
# Method: FIGS. 26A-26E. Effective knockdown of miR-126 with miR-126 inhibitors conjugated with CpG, GpC and PS, and effective over-expression with miR-126 mimics in K562 and MV4-11 cells. K562 and MV4-11 cells were treated with miR-126 inhibitors conjugated with CpG, GpC, PS (FIGS. 26A-26B) or miR-126 mimics (615, 616 and 617) (FIGS. 26C-26D) (500 nM) for 24 hours, and miR-126 expression was measured in these cells. […] FIG. 26E) Tabulation of sequence set forth herein.
# Effective knockdown of miR-126 with miR-126 inhibitors conjugated with CpG, GpC and PS, and effective over-expression with miR-126 mimics in K562 and MV4-11 cells. K562 and MV4-11 cells were treated with miR-126 inhibitors conjugated with CpG, GpC, PS (FIGS. 26A-26B) or miR-126 mimics (615, 616 and 617) (FIGS. 26C-26D) (500 nM) for 24 hours, and miR-126 expression was measured in these cells.
# [2] = tested on: miR-146a; test: Mature miR-146a expression by TAQMAN qPCR; assay type: cell-based, human and mouse; settings: 100 nM
# Method: FIGS. 19A-19H. Inhibitory effects of CpG-anti-miR146a. […] Mouse RAW264.7 (macrophages) (FIG. 19A) and DC2.4 (dendritic cells) (FIG. 19B) as well as human MV4-11 (FIG. 19C) and KG1a AML (FIG. 19D) cells were incubated with 100 nM CpG-anti-miR146a or CpG-scrambled RNA (negative control) for 18 h and then treated with 1 vg/ml LPS for 4 h. KG1a, MOLM13 (FIG. 19E), and MOLM14 (FIG. 19F) cells were incubated with 100 nM CpG-anti-miR146a or CpG-scrambled RNA for 18 h. FIGS. 19G-19H) Mouse CMM AML cells (FIG. 19G) and A20 lymphoma cells (FIG. 19H) were incubated with 100 nM CpG-miR146a mimic for 18 h. Mature miR-146a expression was measured using TAQMAN® qPCR assay and normalized to snoRNA234 levels. miR-146a expression level in untreated samples was set as 1.0. Data are shown as means±SEM (n=3). *P<0.05.
# (§1) FIGS. 21A-21H. Comparing the inhibition effects of CpG-anti-miR and GpC-anti-miR. […] The cells were incubated with 100 nM CpG-anti-miRs or GpC-anti-miRs for 18 hrs. […] RAW264.7 (FIGS. 21E,21G) or A20 cells (FIGS. 21F,21H) were incubated with 500 nM of CpG-anti-miR155, GpC-anti-miR155, or CpG-anti-miR146a, GpC-anti-miR146a for 48 hrs, then the cell lysates were collected and immunoblotted using antibodies against SHIP1 (miR155 target) or IRAK1 (miR146a target)
# The cells were incubated with 100 nM CpG-anti-miRs or GpC-anti-miRs for 18 hrs. […] RAW264.7 (FIGS. 21E,21G) or A20 cells (FIGS. 21F,21H) were incubated with 500 nM of CpG-anti-miR155, GpC-anti-miR155, or CpG-anti-miR146a, GpC-anti-miR146a for 48 hrs, then the cell lysates were collected and immunoblotted using antibodies against SHIP1 (miR155 target) or IRAK1 (miR146a target).
# [3] = tested on: IRAK1 (miR146a target); test: Immunoblot of downstream target IRAK1; assay type: cell-based, mouse or human; settings: for IRAK1 (downstream target regulation): 500 nM, 48 hrs, RAW264.7 or A20 cells
# Method: (§2) FIGS. 20A-20D. Effects of CpG-anti-miRNAs on downstream targets. […] Mouse RAW264.7 or human MV4-11 cells were incubated with 250 nM or 500 nM of CpG-anti-miR155, CpG-anti-miR125b, or CpG-anti-miR146a, or 500 nM of CpG-scramble for 48 h, then the cell lysates were collected and electrophoresed and immunoblotted by antibodies against SHIP1 (miR155 target) (FIG. 20A), IRF4 (miR125b target) (FIG. 20B), or IRAK1 (miR146a target) (FIG. 20C). The band intensities were normalized against β-actin and quantified. Fold induction over the control protein levels are indicated below the blot. FIG. 20D) MV4-11 cells were incubated with 500 nM of CpG-anti-miR155, CpG-antimiR125b, CpG-anti-miR146a, or CpG-scramble for 24 h, then cell lysates were collected and electrophoresed and immunoblotted to detect activated caspase 3 indicating induction of apoptosis.
# as §1
# (§3) Mouse RAW264.7 or human MV4-11 cells were incubated with 250 nM or 500 nM of CpGanti-miR155, CpG-anti-miR125b, or CpG-anti-miR146a, or 500 nM of CpG-scramble for 48 h, then the cell lysates were collected and electrophoresed and immunoblotted by antibodies against SHIP1 (miR155 target) (FIG. 20A), IRF4 (miR125b target) (FIG. 20B), or IRAK1 (miR146a target) (FIG. 20C). The band intensities were normalized against β-actin and quantified. Fold induction over the control protein levels are indicated below the blot. FIG. 20D) MV4-11 cells were incubated with 500 nM of CpG-anti-miR155, CpG-antimiR125b, CpG-anti-miR146a, or CpG-scramble for 24 h, then cell lysates were collected and electrophoresed and immunoblotted to detect activated caspase 3 indicating induction of apoptosis. […]
# [4] = tested on: SHIP1 (miR155 target); test: Immunoblot of downstream target SHIP1; assay type: cell-based, mouse or human
# Method: as §2
# FIGS. 21A-21H. Comparing the inhibition effects of CpG-anti-miR and GpC-anti-miR. […]
# Mouse RAW264.7 or human MV4-11 cells were incubated with 250 nM or 500 nM of CpGanti-miR155, CpG-anti-miR125b, or CpG-anti-miR146a, or 500 nM of CpG-scramble for 48 h, then the cell lysates were collected and electrophoresed and immunoblotted by antibodies against SHIP1 (miR155 target) (FIG. 20A), IRF4 (miR125b target) (FIG. 20B), or IRAK1 (miR146a target) (FIG. 20C). The band intensities were normalized against β-actin and quantified. […]
# [5] = tested on: miR-155; test: Mature miR-155 expression by TAQMAN qPCR; assay type: cell-based, human and mouse; settings: 100 nM
# Method: FIGS. 17A-17F. Inhibitory effects of CpG-anti-miR155. […] Mouse RAW264.7 (macrophages) (FIG. 17A) and DC2.4 (dendritic cells) (FIG. 17B) as well as human MV4-11 AML cells (FIG. 17C) were incubated with 100 nM CpG-anti-miR155 or CpG-scrambled RNA (negative control) for 18 h and then treated with 1 vg/ml LPS for 4 h. KG1a (FIG. 17D), MOLM13 (FIG. 17E), and MOLM14 (FIG. 17F) cells were incubated with 100 nM CpG-anti-miR155 or CpG-scrambled RNA for 18 h. Mature miR-155 expression was measured using TAQMAN® qPCR assay and normalized to snoRNA234 levels. miR-155 expression level in untreated samples was set as 1.0. Data are shown as means±SEM (n=3). *P<0.05.
# as §1
# The cells were incubated with 100 nM CpG-anti-miRs or GpC-anti-miRs for 18 hrs. […]
# [6] = tested on: Human immune cells (CD14+ monocytes, CD1c+ mDCs, CD3+ T cells and CD19+ B cells); test: Uptake of Cy3-labeled CpG-anti-miRs by human immune cells, flow cytometry; assay type: cell-based; settings: for intracellular uptake: Cy3-labeled, human immune cells
# Method: FIGS. 16A-16B. Cell-selective uptake of CpG-anti-miR146a. […] CpG-anti-miR146a was Cy3-labeled to detect the intracellular uptake by target cells using flow cytometry. FIG. 16A) Human immune cells were incubated with indicated concentrations of CpG-anti-miR146acY3 for 1 hr. The uptake by CD14+ monocytes, CD1c+ mDCs, CD3+ T cells and CD19+ B cells was measured using flow cytometry.
# where * indicates a phosphorothioate linkage, mN indicates a 2′OMe modified nucleotide, and x indicates a linker described herein. CpG-anti-miRNAs were Cy3-labeled to detect the intracellular uptake by target cells using flow cytometry. […] Treatment of these compounds reduces the corresponding miR expression in human and mouse myeloid cells (FIGS. 17A-17F, 18A-18F, 19A-19H).
# [7] = tested on: human AML cells KG1a, MOLM13, and MOLM14; test: Uptake of Cy3-labeled CpG-anti-miR146a by cultured AML cells; assay type: cell-based; settings: even at low concentrations
# [8] = tested on: miR-125b; test: Mature miR-125b expression by TAQMAN qPCR; assay type: cell-based, human and mouse; settings: 100 nM, 18 h; various cell models
# Method: FIGS. 18A-18F. Inhibitory effects of CpG-anti-miR125b. […] RAW264.7 (FIG. 18A), DC2.4 (FIG. 18B), and MV4-11 (FIG. 18C) cells were incubated with 100 nM CpG-anti-miR125b or CpG-scrambled RNA (negative control) for 18 h and then treated with 1 vg/mILPS for 4 h. Human AML cells—KG1a (FIG. 18D), MOLM13 (FIG. 18E), and MOLM14 (FIG. 18F)—were incubated with 100 nM CpG-anti-miR125b or control CpG-scrambled RNA for 18 h. Mature miR-125b expression was measured using TAQMAN® qPCR assay and normalized to snoRNA234 levels. miR-125b expression level in untreated samples was set as 1.0. Data are shown as means±SEM (n=3). *P<0.05.
# [9] = tested on: IRF4 (miR125b target); test: Immunoblot of downstream target IRF4; assay type: cell-based, mouse or human; settings: 250 nM or 500 nM, 48 h; RAW264.7 or MV4-11 cells
# Method: as §2
# as §3, with “blot.” for “blot. FIG. 20D) MV4-11 cells were incubated with 500 nM of CpG-anti-miR155, CpG-antimiR125b, CpG-anti-miR146a, or CpG-scramble for 24 h, then cell lysates were collected and electrophoresed and immunoblotted to detect activated caspase 3 indicating induction of apoptosis.”
# [10] = 250 nM or 500 nM, 48 h, RAW264.7 or MV4-11 cells
# [11] = 18 h, human and mouse myeloid cells
substance,measurement,setting,value
5′ G*G*T*G*C*A*T*C*G*A*T*G*C*A*G*G*G*G*G*G (SEQ ID NO: 3) xxxxx mC*mG*mC* mA*mU*mU* mA*mU*mU* mA*mC*mU* mC*mA*mC* mG*mG*mU* mA*mC*mG*mA (SEQ ID NO: 48) 3′ [completely PS-modified oligo],miR-126 expression (knockdown by inhibitors),[1],succeeds in blocking miR126
G*G*T GCA TGC ATG CAGG*G*G* G*G (SEQ ID NO: 2) xxxxx mC*mC*mC*mA*mT*mG*mG*mA*mA*mT*mT*mC*mA*mG*mT*mT*mC*mT*mC*mA (SEQ ID NO: 36) 3′ [GpC-anti-miR146a],miR-146a expression,"[2]; 18 hrs, RAW264.7 and A20 cells",reduces miR155 or miR-146a expression
same,IRAK1 (downstream target regulation),[3],regulates downstream targets
5′G*G*T GCA TCG ATG CAGG*G*G* G*G xxxxx mA*mC*mC*mC*mC*mU*mA*mU*mC*mA*mC*mA*mA*mU*mU*mA*mG*mC*mA*mU*mU*mA*mA 3′ [CpG-anti-miR155],SHIP1 protein level,[4]; [10],upregulated
same,SHIP1 (downstream target regulation),"[4]; 500 nM, 48 hrs, RAW264.7 or A20 cells",regulates downstream targets
same,miR-155 expression,[5]; [11],reduces miR-155 expression
same,miR155 expression,"[5]; 18 hrs, RAW264.7 and A20 cells",reduces miR155 or miR-146a expression
same,intracellular uptake,[6],uptake of these compounds was observed
5′ G*GT. GCA TGC ATG CAG G*G*G*G*G (SEQ ID NO: 2) xxxxx mCmGmC mAmUmU mAmUmU mAmCmU mCmAmC mGmGmU mAmCmG mA (SEQ ID NO: 17) 3′ [GpC],miR-126 expression (knockdown by inhibitors),[1],succeeds in blocking miR126
5′ G*G*T GCA TCG ATG CAGG*G*G* G*G xxxxx mC*mC*mC*mA*mU*mG*mG*mA*mA*mU*mU*mC*mA*mG*mU*mU*mC*mU*mC*mA 3′ [CpG-anti-miR146a],internalization by cultured AML cells,[7],rapidly internalize
same,miR-146a expression,[2]; [11],reduces miR-146a expression
same,miR-146a expression,"[2]; 18 hrs, RAW264.7 and A20 cells",reduces miR155 or miR-146a expression
same,IRAK1 protein level,[3]; [10],upregulated
same,IRAK1 (downstream target regulation),[3],regulates downstream targets
same,intracellular uptake,[6],uptake of these compounds was observed
same,internalization by target immune and leukemic cells,[6]; without any transfection reagents,Dose and time dependent internalization
5′ G*G*T GCA TCG ATG CAGG*G*G* G*G xxxxx mU*mC*mA*mC*mA*mA*mG*mU*mU*mA*mG*mG*mG*mU*mC*mU*mC*mA*mG*mG*mG*mA 3′ [CpG-anti-miR125b],miR-125b expression,[8],reduces miR-125b expression
same,intracellular uptake,[6],uptake of these compounds was observed
same,IRF4 protein level (downstream target regulation),[9],regulate downstream targets
